Source: US5643870A, “O-acylated cyclosporins” (Sandoz Ltd., priority 1992, dated 1997)
In brackets after ≈: the same amount, converted by molar mass.

Experiments:
[1] = tested on: plaque forming, i.e. antibody producing, cells (lymphocytes from the spleen of OFI mice co-cultured with sheep erythrocytes); assay type: cell-based; details: 3 days co-culture with sheep erythrocytes
Experimental: Ca. 10^7 lymphocytes from the spleen of OFI, female mice are co-cultured with ca. 3×10^7 sheep erythrocytes for 3 days. Test substance is added to the incubation medium in varying concentrations. Lymphocytes are harvested and plated onto agar with fresh sheep erythrocytes as antigen. Sensitised lymphocytes secrete antibody that coats the erythrocytes, which lyse to form a plaque in the presence of complement. Activity is assessed by reduction in the number of plaque forming, i.e. antibody producing, cells. Cyclosporins in accordance with the present invention reduce the numbers of plaque forming cells at concentrations of the order of from 0.03 to 0.05 μg/ml.

[2] = tested on: lymphocytes from the spleen of Balb/c mice incubated with lymphocytes from the spleen of CBA mice
Experimental: 0.5×10^6 lymphocytes from the spleen of female (8-10 weeks) Balb/c mice are incubated for 5 days in 0.2 ml cell growth medium with ca. 0.5×10^6 lymphocytes from the spleen of female (8-10 weeks) CBA mice. Test substance is added to the medium at various concentrations. Activity is assessed by ability to suppress proliferation associated DNA synthesis as determined by incorporation of radiolabelled thymidine.

In the case of CC[C@@H]1NC(=O)[C@H]([C@H](O)[C@H](C)C/C=C/COC(=O)OC)N(C)C(=O)[C@H](C(C)C)N(C)C(=O)[C@H](CC(C)C)N(C)C(=O)[C@H](CC(C)C)N(C)C(=O)[C@@H](C)NC(=O)[C@H](C)NC(=O)[C@H](CC(C)C)N(C)C(=O)[C@H](C(C)C)NC(=O)[C@H](CC(C)C)N(C)C(=O)CN(C)C1=O [Example 1, [(8'-Methoxycarbonyloxy)MeBmt]^1 -Ciclosporin], the “IC50, test 1.2 Mishell-Dutton test (number of plaque forming cells)” value [1] is reported as 0.043 µg/mL and the “IC50, test 1.1 murine mixed lymphocyte reaction (thymidine incorporation)” value [2] is reported as 0.015 µg/mL (≈ 0.0117 µM).
